{
  "source": "paper PMC10857328",
  "about": "“Utilization of Biopolymer-Based Lutein Emulsion as an Effective Delivery System to Improve Lutein Bioavailability in Neonatal Rats” (Nutrients, 2024)",
  "key": {"[1]": {"experiment": "Daily dosing study 2 (maternal standard chow diet containing lutein): serum and tissue lutein concentrations", "type": "in vivo, neonatal Sprague-Dawley rats", "conditions": "2 mg/kg daily oral P5-P18", "method": "Serum and tissue lutein concentration was determined using an ultra-performance liquid chromatography (UPLC) system (Waters, Milford, MA, USA) equipped with a photo-diode array detector (PDA)/MS/MS, according to our well-established methods with slight modification. As for the serum, 100 μL of the sample was incubated with 2 mL of 100% ethanol at room temperature for an hour for lipid extraction. For the tissues, ~0.1 g of the sample was weighed, homogenized, and incubated with 2 mL of 100% ethanol at room temperature for an hour. An amount of 1 mL of 5% (w/v) potassium hydroxide was added to the sample and incubated in a water bath at 60 °C for 45 min for saponification. Upon saponification, samples were allowed to cool for about 15 min, and then an addition of 4 mL of hexane containing 0.1% butylated hydroxytoluene (w/v) and 2 mL of deionized water was added. The mixture was vortexed for 20 s and centrifuged at 1600 rpm at 25 °C for 15 min. The upper layer was collected following centrifugation and dried under nitrogen at 37 °C. The dried sample was then rinsed twice with hexane, dried, and reconstituted with 100 µL of acetonitrile-methanol. The reconstituted sample was centrifuged for 2 min to remove any possible precipitation. For UPLC analysis, 10 µL of the sample was injected into the Waters Acquity UPLC HSS T3 column. Solvent A was acetonitrile: methanol (50:50, v/v), and solvent B was 100% isopropanol. The mobile phase was made up of solvent A and solvent B in a volume ratio of 95:5 (v/v). The flow rate was set as 0.5 mL/min, and the column temperature was maintained at 35 °C. The detection wavelength was set at 446 nm. Retinyl acetate (Sigma-Aldrich, St. Louis, MO, USA) was used as the internal standard. To mimic the human dietary intake of lutein, daily dosing study 2 was conducted (Figure 1C). In this study, maternal rats consumed a standard rodent chow diet containing lutein from ingredients (i.e., ground corn) during pregnancy and lactation (Figure S2). The study design was similar to that of daily dosing study 1, except that a negative control group, in which rat pups were given olive oil from P5 to P18, was included in this study. Serum and tissue lutein concentrations were analyzed using the methods described in Section 2.3.2."}, "[2]": {"experiment": "Daily dosing study 1 (maternal purified diet with no lutein): serum and tissue lutein concentrations", "type": "in vivo, neonatal Sprague-Dawley rats", "conditions": "for Lutein concentration, serum: 2 mg/kg daily oral P5-P18, sampled P19", "method": "Serum and tissue lutein concentration was determined using an ultra-performance liquid chromatography (UPLC) system (Waters, Milford, MA, USA) equipped with a photo-diode array detector (PDA)/MS/MS, according to our well-established methods with slight modification. As for the serum, 100 μL of the sample was incubated with 2 mL of 100% ethanol at room temperature for an hour for lipid extraction. For the tissues, ~0.1 g of the sample was weighed, homogenized, and incubated with 2 mL of 100% ethanol at room temperature for an hour. An amount of 1 mL of 5% (w/v) potassium hydroxide was added to the sample and incubated in a water bath at 60 °C for 45 min for saponification. Upon saponification, samples were allowed to cool for about 15 min, and then an addition of 4 mL of hexane containing 0.1% butylated hydroxytoluene (w/v) and 2 mL of deionized water was added. The mixture was vortexed for 20 s and centrifuged at 1600 rpm at 25 °C for 15 min. The upper layer was collected following centrifugation and dried under nitrogen at 37 °C. The dried sample was then rinsed twice with hexane, dried, and reconstituted with 100 µL of acetonitrile-methanol. The reconstituted sample was centrifuged for 2 min to remove any possible precipitation. For UPLC analysis, 10 µL of the sample was injected into the Waters Acquity UPLC HSS T3 column. Solvent A was acetonitrile: methanol (50:50, v/v), and solvent B was 100% isopropanol. The mobile phase was made up of solvent A and solvent B in a volume ratio of 95:5 (v/v). The flow rate was set as 0.5 mL/min, and the column temperature was maintained at 35 °C. The detection wavelength was set at 446 nm. Retinyl acetate (Sigma-Aldrich, St. Louis, MO, USA) was used as the internal standard. To determine the effects of daily consumption of CTA-stabilized lutein emulsion on tissue lutein status, two daily dosing studies were conducted. The procedures were approved by the Institutional Animal Care and Use Committee of the University of Alabama (Number: 21-02-4373, 4 February 2021). For daily dosing study 1 (Figure 1B), on P5, rat pups (n = 8–9/group) were randomly selected from the litters and received an oral dose of either free lutein (i.e., lutein ester dissolved in olive oil) or lutein emulsion both containing 2 mg/kg body weight of lutein. […] Dosing was repeated daily until P18. The dosage was determined from previous research in both rodent and human newborns and was also established as an Acceptable Daily Intake for lutein by the Joint Food and Agricultural Organization/World Health Organization. On P19, pups were euthanized. Rats are known to wean between P19 and P21 [47]. Blood from vena cava, liver, spleen, brain, eye, kidney, lung, white adipose tissue (WAT), and brown adipose tissue (BAT) were collected. Blood samples were centrifuged to obtain serum. Serum and collected tissues were frozen at −80 °C until analysis. Serum and tissue lutein concentrations were analyzed using the methods described in Section 2.3.2."}, "[3]": {"conditions": "encapsulation technique Nanoparticles, Sprague-Dawley rats, cited from earlier work"}, "[4]": {"conditions": "maternal standard chow diet containing lutein"}, "[5]": {"conditions": "maternal standard chow diet containing lutein, listed as free lutein"}, "[6]": {"conditions": "2 mg/kg daily oral P5-P18, maternal purified diet with no lutein"}, "[7]": {"conditions": "2 mg/kg daily oral P5-P18, maternal purified diet with no lutein, listed as free lutein"}, "[8]": {"conditions": "daily dosing study 1 vs study 2"}},
  "note": "Like-named read-outs stand apart in the source and are kept apart here. Marks after values point to notes of the source that are not given here.",
  "data": [
    {"substance": "Lutein ester [Free Lutein]", "values": [
      {"measurement": "Lutein concentration, BAT", "setting": "[1]; [4]", "result": "0.026 ± 0.014 ^a nmol/g"},
      {"measurement": "Lutein concentration, WAT", "setting": "[1]; [4]", "result": "0.34 ± 0.23 ^a nmol/g"},
      {"measurement": "Lutein concentration, brain", "setting": "[1]; [4]", "result": "0.06 ± 0.04 ^ab nmol/g"},
      {"measurement": "Lutein concentration, eye", "setting": "[1]; [4]", "result": "0.01 ± 0.003 ^c nmol/g"},
      {"measurement": "Lutein concentration, kidney", "setting": "[1]; [4]", "result": "0.12 ± 0.03 ^b nmol/g"},
      {"measurement": "Lutein concentration, liver", "setting": "[1]; [4]", "result": "1.23 ± 0.38 ^bc nmol/g"},
      {"measurement": "Lutein concentration, lung", "setting": "[1]; [4]", "result": "0.043 ± 0.007 ^a nmol/g"},
      {"measurement": "Lutein concentration, serum", "setting": "[1]; [4]", "result": "17.6 ± 4.39", "unit": "nM"},
      {"measurement": "Lutein concentration, spleen", "setting": "[1]; [4]", "result": "0.58 ± 0.29 ^b nmol/g"},
      {"measurement": "Lutein concentration, serum", "setting": "[1]; maternal standard chow diet containing lutein (Table 4)", "result": "17.61 ± 4.39 ^b nmol/L"},
      {"measurement": "Lutein concentration, BAT", "setting": "[1]; [5]", "result": "0.026 ± 0.014", "unit": "nmol/g"},
      {"measurement": "Lutein concentration, WAT", "setting": "[1]; [5]", "result": "0.34 ± 0.23", "unit": "nmol/g"},
      {"measurement": "Lutein concentration, brain", "setting": "[1]; [5]", "result": "0.06 ± 0.04", "unit": "nmol/g"},
      {"measurement": "Lutein concentration, eye", "setting": "[1]; [5]", "result": "0.01 ± 0.003", "unit": "nmol/g"},
      {"measurement": "Lutein concentration, kidney", "setting": "[1]; [5]", "result": "0.12 ± 0.03", "unit": "nmol/g"},
      {"measurement": "Lutein concentration, liver", "setting": "[1]; [5]", "result": "1.23 ± 0.38", "unit": "nmol/g"},
      {"measurement": "Lutein concentration, lung", "setting": "[1]; [5]", "result": "0.043 ± 0.007", "unit": "nmol/g"},
      {"measurement": "Lutein concentration, serum", "setting": "[2]; maternal purified diet with no lutein", "result": "112.42 ± 34.60 ^a nmol/L"},
      {"measurement": "Lutein concentration, serum", "setting": "[2]; maternal purified diet with no lutein, listed as free lutein", "result": "112.42 ± 34.60", "unit": "nmol/L"},
      {"measurement": "Lutein concentration, BAT", "setting": "[2]; [6]", "result": "0.02 ± 0.002 ^a nmol/g"},
      {"measurement": "Lutein concentration, WAT", "setting": "[2]; [6]", "result": "0.08 ± 0.04 ^a nmol/g"},
      {"measurement": "Lutein concentration, brain", "setting": "[2]; [6]", "result": "0.04 ± 0.01 ^b nmol/g"},
      {"measurement": "Lutein concentration, eye", "setting": "[2]; [6]", "result": "0.04 ± 0.01 ^a nmol/g"},
      {"measurement": "Lutein concentration, kidney", "setting": "[2]; [6]", "result": "0.12± 0.04 ^b nmol/g"},
      {"measurement": "Lutein concentration, liver", "setting": "[2]; [6]", "result": "2.52 ± 1.29 ^b nmol/g"},
      {"measurement": "Lutein concentration, lung", "setting": "[2]; [6]", "result": "0.06 ± 0.01 ^a nmol/g"},
      {"measurement": "Lutein concentration, spleen", "setting": "[2]; [6]", "result": "0.66 ± 0.18 ^a nmol/g"},
      {"measurement": "Lutein concentration, BAT", "setting": "[2]; [7]", "result": "0.02 ± 0.002", "unit": "nmol/g"},
      {"measurement": "Lutein concentration, brain", "setting": "[2]; [7]", "result": "0.04 ± 0.01", "unit": "nmol/g"},
      {"measurement": "Lutein concentration, eye", "setting": "[2]; [7]", "result": "0.02 ± 0.007", "unit": "nmol/g"},
      {"measurement": "Lutein concentration, kidney", "setting": "[2]; [7]", "result": "0.12 ± 0.04", "unit": "nmol/g"},
      {"measurement": "Lutein concentration, liver", "setting": "[2]; [7]", "result": "2.52 ± 1.29", "unit": "nmol/g"},
      {"measurement": "Lutein concentration, lung", "setting": "[2]; [7]", "result": "0.06 ± 0.01", "unit": "nmol/g"},
      {"measurement": "Lutein concentration, spleen", "setting": "[2]; [7]", "result": "0.66 ± 0.18", "unit": "nmol/g"},
      {"measurement": "Fold higher eye lutein concentration, no-lutein maternal diet vs diet containing lutein", "setting": "[2]; [8]", "result": 2.00, "unit": "fold"},
      {"measurement": "Fold higher liver lutein concentration, no-lutein maternal diet vs diet containing lutein", "setting": "[2]; [8]", "result": 2.04, "unit": "fold"},
      {"measurement": "Fold higher serum lutein concentration, no-lutein maternal diet vs diet containing lutein", "setting": "[2]; [8]", "result": 6.38, "unit": "fold"},
      {"measurement": "Tmax (serum)", "setting": "[3]; ref Chang et al. (2018) [59]", "result": 3, "unit": "h"},
      {"measurement": "Tmax (serum)", "setting": "[3]; ref Liu et al. (2017) [37]", "result": 2, "unit": "h"},
      {"measurement": "Tmax (serum)", "setting": "[3]; ref Wu et al. (2019) [54]", "result": 2, "unit": "h"},
      {"measurement": "Tmax (serum)", "setting": "[3]; ref Zhang et al. (2015) [58]", "result": "6 ± 2.2", "unit": "h"}
    ]}
  ]
}
